Patent US11976061B2, “Preparation of benzimidazolone derivatives as novel diacylglyceride O-acyltransferase 2 inhibitors” (Merck Sharp & Dohme LLC, priority 2020, dated 2024)

The compounds below were run against T1, human DGAT2 (hDGAT2) (Homo sapiens, UniProt Q96PD7) (assay: DGAT2 Enzymatic Activity Assay). Details: membrane prep of Sf-9 cells expressing hDGAT2; 25 μM diolein, 5 μM 13C oleoyl-CoA; 13C18-triolein by LC/MS/MS; read-out: DGAT2 IC50.
T1 construct: made in house; host or cells: Sf-9 insect cells (baculovirus), membrane fraction
T1 sequence (Q96PD7 1-388): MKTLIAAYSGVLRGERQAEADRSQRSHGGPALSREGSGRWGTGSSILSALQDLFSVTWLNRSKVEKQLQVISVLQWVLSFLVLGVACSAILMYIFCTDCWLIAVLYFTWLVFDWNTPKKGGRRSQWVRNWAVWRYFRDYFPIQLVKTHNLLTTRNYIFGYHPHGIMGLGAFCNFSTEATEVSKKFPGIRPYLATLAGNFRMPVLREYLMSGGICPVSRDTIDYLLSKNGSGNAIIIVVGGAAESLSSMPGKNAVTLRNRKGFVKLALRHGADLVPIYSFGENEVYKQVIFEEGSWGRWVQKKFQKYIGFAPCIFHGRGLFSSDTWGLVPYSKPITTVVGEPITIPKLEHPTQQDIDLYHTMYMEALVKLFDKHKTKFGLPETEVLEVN
Type: biochemical
How it was run: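 Membranes from Sf-9 cells expressing untagged human DGAT2 (8 ng/μL) incubated at rt in 100 mM Tris·Cl pH 7.0, 20 mM MgCl2, 5% ethanol with 25 μM diolein and 5 μM 13C oleoyl-CoA. 13C18-triolein product quantified by LC/MS/MS against 13C21-triolein internal standard; IC50 by 4-parameter fit.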

SMILES	IC50 [nM]
CC(C)Oc1cccc(-n2c(=O)n(C(C)C)c3cc(C(=O)NC4(C)CS(=O)(=O)C4)cnc32)c1 [Example 100, 3-(3-isopropoxyphenyl)-1-isopropyl-N-(3-methyl-1,1-dioxo-thietan-3-yl)-2-oxo-imidazo[4,5-b]pyridine-6-carboxamide]	692
CC(C)Oc1cccc(-n2c(=O)n(C(C)C)c3cc(C(=O)NC4(C)CCS(=O)(=O)CC4)cnc32)c1 [Example 101, 3-(3-isopropoxyphenyl)-1-isopropyl-N-(4-methyl-1,1-dioxo-thian-4-yl)-2-oxo-imidazo[4,5-b]pyridine-6-carboxamide]	506

Other lines, results leading:

IC50 [nM]	SMILES
355	CC(C)n1c(=O)n(-c2cccc(OC(F)(F)F)c2)c2ncc(C(=O)NC3(C)CS(=O)(=O)C3)cc21 [Example 91, 1-isopropyl-N-(3-methyl-1,1-dioxo-thietan-3-yl)-2-oxo-3-[3-(trifluoromethoxy)phenyl]imidazo[4,5-b]pyridine-6-carboxamide]
288	CC(C)n1c(=O)n(-c2cccc(OC(F)F)c2)c2ncc(C(=O)N[C@@]3(C)CCS(=O)(=O)C3)cc21 [Example 89, 3-[3-(difluoromethoxy)phenyl]-1-isopropyl-N-[(3S)-3-methyl-1,1-dioxo-thiolan-3-yl]-2-oxo-imidazo[4,5-b]pyridine-6-carboxamide]
236	CC(C)n1c(=O)n(-c2cccc(OC(F)(F)F)c2)c2ncc(C(=O)NC3(C)CCS(=O)(=O)CC3)cc21 [Example 92, 1-isopropyl-N-(4-methyl-1,1-dioxo-thian-4-yl)-2-oxo-3-[3-(trifluoromethoxy)phenyl]imidazo[4,5-b]pyridine-6-carboxamide]
193	CC(C)n1c(=O)n(-c2cccc(OC(F)F)c2)c2ncc(C(=O)N[C@]3(C)CCS(=O)(=O)C3)cc21 [Example 90, 3-[3-(difluoromethoxy)phenyl]-1-isopropyl-N-[(3R)-3-methyl-1,1-dioxo-thiolan-3-yl]-2-oxo-imidazo[4,5-b]pyridine-6-carboxamide]
154	CCOc1cccc(-n2c(=O)n(C(C)C)c3cc(C(=O)N[C@@]4(C)CCS(=O)(=O)C4)cnc32)c1 [Example 97, 3-(3-ethoxyphenyl)-1-isopropyl-N-[(3S)-3-methyl-1,1-dioxo-thiolan-3-yl]-2-oxo-imidazo[4,5-b]pyridine-6-carboxamide]
148	CC(C)n1c(=O)n(-c2cc(OC(F)F)ccc2F)c2ncc(C(=O)NC3(C)CS(=O)(=O)C3)cc21 [Example 102, 3-[5-(difluoromethoxy)-2-fluoro-phenyl]-1-isopropyl-N-(3-methyl-1,1-dioxo-thietan-3-yl)-2-oxo-imidazo[4,5-b]pyridine-6-carboxamide]
108	CC(C)n1c(=O)n(-c2cccc(OC(F)(F)C(F)F)c2)c2ncc(C(=O)N[C@@]3(C)CCS(=O)(=O)C3)cc21 [Example 94, 1-isopropyl-N-[(3S)-3-methyl-1,1-dioxo-thiolan-3-yl]-2-oxo-3-[3-(1,1,2,2-tetrafluoroethoxy)phenyl]imidazo[4,5-b]pyridine-6-carboxamide]
102	CCOc1cccc(-n2c(=O)n(C(C)C)c3cc(C(=O)N[C@]4(C)CCS(=O)(=O)C4)cnc32)c1 [Example 98, 3-(3-ethoxyphenyl)-1-isopropyl-N-[(3R)-3-methyl-1,1-dioxo-thiolan-3-yl]-2-oxo-imidazo[4,5-b]pyridine-6-carboxamide]
94	CC(C)n1c(=O)n(-c2cccc(OC(F)F)c2)c2ncc(C(=O)NC3(C)CS(=O)(=O)C3)cc21 [Example 104, 3-[3-(difluoromethoxy)phenyl]-1-isopropyl-N-(3-methyl-1,1-dioxo-thietan-3-yl)-2-oxo-imidazo[4,5-b]pyridine-6-carboxamide]
93	CCOc1cccc(-n2c(=O)n(C(C)C)c3cc(C(=O)NC4(C)CS(=O)(=O)C4)cnc32)c1 [Example 96, 3-(3-ethoxyphenyl)-1-isopropyl-N-(3-methyl-1,1-dioxo-thietan-3-yl)-2-oxo-imidazo[4,5-b]pyridine-6-carboxamide]
52	CCOc1cccc(-n2c(=O)n(C(C)C)c3cc(C(=O)NC4(C)CCS(=O)(=O)CC4)cnc32)c1 [Example 99, 3-(3-ethoxyphenyl)-1-isopropyl-N-(4-methyl-1,1-dioxo-thian-4-yl)-2-oxo-imidazo[4,5-b]pyridine-6-carboxamide]
24	CC(C)n1c(=O)n(-c2cccc(OC(F)(F)C(F)F)c2)c2ncc(C(=O)NC3(C)CS(=O)(=O)C3)cc21 [Example 93, 1-isopropyl-N-(3-methyl-1,1-dioxo-thietan-3-yl)-2-oxo-3-[3-(1,1,2,2-tetrafluoroethoxy)phenyl]imidazo[4,5-b]pyridine-6-carboxamide]
23	CC(C)n1c(=O)n(-c2cccc(OC(F)(F)C(F)F)c2)c2ncc(C(=O)N[C@]3(C)CCS(=O)(=O)C3)cc21 [Example 95, 1-isopropyl-N-[(3R)-3-methyl-1,1-dioxo-thiolan-3-yl]-2-oxo-3-[3-(1,1,2,2-tetrafluoroethoxy)phenyl]imidazo[4,5-b]pyridine-6-carboxamide]

Same assay, conditions: membrane prep of Sf-9 cells expressing hDGAT2; 25 μM diolein, 5 μM 13C oleoyl-CoA; 13C18-triolein by LC/MS/MS; read-out: Human DGAT2 IC50

IC50 [nM]	SMILES
5.7	CC(C)n1c(=O)n(-c2cc(OC(F)F)ccc2F)c2ccc(C(=O)N[C@]3(C)CCS(=O)(=O)C3)cc21 [Example 82, (R)-1-(5-(Difluoromethoxy)-2-fluorophenyl)-3-isopropyl-N-(3-methyl-1,1-dioxidotetrahydrothiophen-3-yl)-2-oxo-2,3-dihydro-1H-benzo[d]imidazole-5-carboxamide]
150	CC(C)n1c(=O)n(-c2cncc(OC(F)F)c2)c2ccc(C(=O)NC3(C)CS(=O)(=O)C3)cc21 [Example 83, 1-(5-(Difluoromethoxy)pyridin-3-yl)-3-isopropyl-N-(3-methyl-1,1-dioxidothietan-3-yl)-2-oxo-2,3-dihydro-1H-benzo[d]imidazole-5-carboxamide]
71	CC(C)n1c(=O)n(-c2cncc(C3CC3)c2)c2ccc(C(=O)NC3(C)CS(=O)(=O)C3)cc21 [Example 84, 1-(5-Cyclopropylpyridin-3-yl)-3-isopropyl-N-(3-methyl-1,1-dioxidothietan-3-yl)-2-oxo-2,3-dihydro-1H-benzo[d]imidazole-5-carboxamide]
20	CC(C)n1c(=O)n(-c2cccc(OC(F)(F)C(F)F)c2)c2ncc(C(=O)NC3(C)CCS(=O)(=O)CC3)cc21 [Example 87, 1-isopropyl-N-(4-methyl-1,1-dioxo-thian-4-yl)-2-oxo-3-[3-(1,1,2,2-tetrafluoroethoxy)phenyl]imidazo[4,5-b]pyridine-6-carboxamide]
1800	CC(C)n1c(=O)n(-c2cccc(OC(F)F)c2)c2cnc(C(=O)NC3(C)CS(=O)(=O)C3)cc21 [Example 105, 3-(3-(difluoromethoxy)phenyl)-1-isopropyl-N-(3-methyl-1,1-dioxidothietan-3-yl)-2-oxo-2,3-dihydro-1H-imidazo[4,5-c]pyridine-6-carboxamide]
69.8	CC(C)n1c(=O)n(-c2cccc(OC(F)F)c2)c2cnc(C(=O)NC3(C)CCS(=O)(=O)CC3)cc21 [Example 106, 3-(3-(difluoromethoxy)phenyl)-1-isopropyl-N-(4-methyl-1,1-dioxidotetrahydro-2H-thiopyran-4-yl)-2-oxo-2,3-dihydro-1H-imidazo[4,5-c]pyridine-6-carboxamide]
